US20260199270A1, “METHODS FOR TREATING NEURODEGENERATIVE DISORDERS WITH TRAMIPROSATE” (Alzheon, Inc., priority 2022, published 2026)
“Also recorded” adds a separate entry of the source.

Tests used:
Type in all cases: in vivo, human
[1] = tested on: plasma Aβ40; assay: Phase 2 trial of ALZ-801 in early Alzheimer's disease: plasma Aβ40; settings: 52 weeks; 265 mg ALZ-801 orally twice daily; APOE4+ early AD subjects
Experimental: FIG. 1 illustrates the effect on plasma Abeta40 (change from baseline) following a 52 week treatment with 265 mg ALZ-801 administered orally twice daily to subjects who are APOE4+ and have early AD.
(§1) Evaluation of disease modifying effects from phase 2 trial of ALZ-801 (valiltramiprosate) in subjects with early Alzheimer's disease were conducted. The study enrolled 84 patients, with early AD, who carry the APOE4/4 or APOE3/4 genotype and have an MMSE score ranging from 22 to 30 (CDR-G 0.5 or 1). Each patient received 265 mg ALZ-801 twice daily. The average MMSE score of the subjects was 26 (mean age 69 years, 52% female). Subjects were either amyloid PET positive or A+/T+ on CSF assays. CSF criteria were: Ratio of Aβ42/40×10<0.61, and p-tau181>61 pg/ml. CSF was evaluated at 52 weeks, and plasma biomarkers at every visit.
(§2) These effects were associated with benefits on a composite cognitive outcome that tests memory and learning. […] The HV preservation effects correlate with cognitive benefits (Spearman's coefficient r=0.27, p=0.02).

[2] = tested on: plasma Aβ42; assay: Phase 2 trial of ALZ-801 in early Alzheimer's disease: plasma Aβ42; settings: 52 weeks; 265 mg ALZ-801 orally twice daily; APOE4+ early AD subjects
Experimental: FIG. 2 illustrates the effect on plasma Abeta42 (change from baseline) following a 52 week treatment with 265 mg ALZ-801 administered orally twice daily to subjects who are APOE4+ and have early AD.
as §1, §2

[3] = tested on: plasma p-tau181; assay: Phase 2 trial of ALZ-801 in early Alzheimer's disease: plasma p-tau181; settings: 52 weeks; 265 mg ALZ-801 orally twice daily; APOE4+ early AD subjects
Experimental: FIG. 3 illustrates the effect on plasma p-tau181 (change from baseline) following a 52 week treatment with 265 mg ALZ-801 administered orally twice daily to subjects who are APOE4+ and have early AD.
as §1, §2

[4] = Phase 2 trial of ALZ-801: HV atrophy vs matched external control group from ADNI-1; settings: compared to matched external control group from the ADNI-1 observational study; 265 mg twice daily
Experimental: as §1, §2

[5] = Phase 2 trial of ALZ-801: safety, ARIA and macrohemorrhages; settings: 1 year of ALZ-801 treatment
Experimental: This is further supported by the early significant decrease in the neuronal injury marker plasma p-tau, which indicates decreased amyloid-induced neuronal stress. See e.g., FIG. 3.
as §1, with “visit. […]” for “visit.”

For `CC(C)[C@H](N)C(=O)NCCCS(=O)(=O)O` [ALZ-801, valyl-3-amino-1-propanesulfonic acid], the “reduction of plasma Aβ40 compared to baseline” value [1] was ~ 5%, the “reduction of plasma Aβ42 compared to baseline” value [2] was ~ 5% and the “reduction of plasma p-tau compared to baseline” value [3] was 41%. For the same compound, the “reduction of HV atrophy” value [4] was 19-23%, the “events of vasogenic edema / amyloid-related imaging abnormalities (ARIA-E; b52: ARIA-E or ARIA-H)” value [5] was “no events” and the “macrohemorrhages (bleeds larger than 1 cm in diameter)” value [5] was “no events; also recorded: no macro-hemorrhages”.
